Experiments:
Adenosine receptor A2a = Adenosine receptor A2a (Homo sapiens, UniProt P29274); experiment: Antagonist activity against human adenosine A2A receptor; format: functional
Homo sapiens = organism: Homo sapiens; experiment: Ratio of Ki for human adenosine A1 receptor to Ki for human adenosine A2A receptor
[1] = Solubility of the compound at pH 7.4; format: physicochemical; conditions: buffer
Rattus norvegicus [2] = experiment: Inhibition of haloperidol -induced catalepsy in rat at 10 mg/kg, po measured after 1 hr; format: functional
Rattus norvegicus [3] = experiment: Inhibition of haloperidol -induced catalepsy in rat at 10 mg/kg, po measured after 4 hrs; format: functional
[4] = AUC in rat at 3 mg/kg by LC-MS analysis; format: ADME, organism-based; parameters: dose 3 mg/kg; conditions: plasma
[5] = Drug uptake in rat brain at 3 mg/kg measured after 6 hrs; format: ADME, organism-based; parameters: dose 3 mg/kg; conditions: read-out: Drug uptake
Rattus norvegicus [6] = experiment: Intrinsic clearance in rat at 3 mg/kg; format: ADME, organism-based; parameters: dose 3 mg/kg; conditions: in vivo

Chain of Adenosine receptor A2a (P29274 whole entry): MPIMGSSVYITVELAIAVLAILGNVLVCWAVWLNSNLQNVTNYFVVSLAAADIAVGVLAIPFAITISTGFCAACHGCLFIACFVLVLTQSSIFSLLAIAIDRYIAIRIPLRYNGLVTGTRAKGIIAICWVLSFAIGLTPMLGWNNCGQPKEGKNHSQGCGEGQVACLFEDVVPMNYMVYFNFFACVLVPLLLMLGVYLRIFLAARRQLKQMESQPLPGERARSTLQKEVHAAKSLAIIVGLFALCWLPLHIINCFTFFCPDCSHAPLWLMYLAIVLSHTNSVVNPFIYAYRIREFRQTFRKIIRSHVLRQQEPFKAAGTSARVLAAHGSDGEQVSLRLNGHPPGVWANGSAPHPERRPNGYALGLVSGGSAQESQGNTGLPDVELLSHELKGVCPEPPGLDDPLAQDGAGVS

| Ki (Adenosine receptor A2a) [nM] | Ratio Ki (Homo sapiens) | solubility ([1]; read-out: solubility) [µM] | Compound | also measured |
| --- | --- | --- | --- | --- |
| > 1300 |  |  | Nc1nc2c(cnn2CCN2CCN(c3ccc(F)cc3F)CC2)c2nn(Cc3ccccc3)c(=O)n12 |  |
| 14.2 | 99 | 25 | Nc1nc2c(cnn2CCN2CCOCC2)c2nn(Cc3cccc(Cl)c3)c(=O)n12 |  |
| 6.7 | 224 |  | Nc1nc2c(cnn2CCN2CCC(N3CCOCC3)CC2)c2nn(Cc3cccc(Cl)c3)c(=O)n12 |  |
| 5.2 | 269 | 18 | CN(C)CCn1ncc2c1nc(N)n1c(=O)n(Cc3cccc(Cl)c3)nc21 | inhibition in vivo at 10 mg/kg (Rattus norvegicus [2]): 13%; inhibition in vivo at 10 mg/kg (Rattus norvegicus [3]): 20%; AUC [4]: 0.398 µM·h; concentration at 6 h [5]: 39 ng/g; CL (Rattus norvegicus [6]): 37.3 mL/min/kg |
| 636 | 2 | 25 | COc1ccc(-c2cc3nn(Cc4ccccc4)c(=O)n3c(N)n2)cc1 |  |
| 381 | 4 | > 250 | Nc1nc2c(cnn2CCN2CCOCC2)c2nn(CC3CC3)c(=O)n12 |  |
| 556 | 2 | 25 | CC(C)(C)OC(=O)N1CCN(CCn2ncc3c2nc(N)n2c(=O)n(Cc4cccc(Cl)c4)nc32)CC1 |  |
| 791 | 2 | 100 | Nc1nc(-c2cccnc2)cc2nn(Cc3ccccc3)c(=O)n12 |  |
| 15.6 | 90 | 12 | COCCOc1ccc(N2CCN(CCn3ncc4c3nc(N)n3c(=O)n(Cc5cccc(Cl)c5)nc43)CC2)c(F)c1 |  |
| 0.4 | 356 | 12 | C=Cn1ncc2c1nc(N)n1c(=O)n(Cc3cccc(Cl)c3)nc21 | inhibition in vivo at 10 mg/kg (Rattus norvegicus [2]): 13%; inhibition in vivo at 10 mg/kg (Rattus norvegicus [3]): 15%; CL (Rattus norvegicus [6]): 27.7 mL/min/kg |
| 12.7 | 110 | 50 | Nc1nc2c(cnn2CCN2CCN(c3cnccn3)CC2)c2nn(Cc3ccccc3)c(=O)n12 |  |
| 8.9 | 157 | 75 | CS(=O)(=O)N1CCN(CCn2ncc3c2nc(N)n2c(=O)n(Cc4ccccc4)nc32)CC1 |  |
| 7 | 3 |  | Nc1nc(-c2ccccc2)cc2nc(-c3ccco3)nn12 |  |
| 9 | 156 | 175 | Nc1nc2c(cnn2CCN2CCOCC2)c2nn(Cc3ccccc3)c(=O)n12 |  |
| 10.5 | 133 | 12 | CS(=O)(=O)N1CCN(CCn2ncc3c2nc(N)n2c(=O)n(Cc4cccc(Cl)c4)nc32)CC1 |  |
| 12.9 | 109 | 25 | Nc1nc2c(cnn2CCN2CCN(c3cnccn3)CC2)c2nn(Cc3cccc(Cl)c3)c(=O)n12 |  |
| 27.4 | 55 | 175 | C=Cn1ncc2c1nc(N)n1c(=O)n(CC3CC3)nc21 |  |
| 1700 | 1 | 100 | Nc1nc(-c2cccc(CO)c2)cc2nn(Cc3ccccc3)c(=O)n12 |  |
| > 1300 |  | 100 | CC(C)(C)OC(=O)N1CCN(CCn2ncc3c2nc(N)n2c(=O)n(Cc4ccccc4)nc32)CC1 |  |
| 0.3 | 1120 | 37 | C=Cn1ncc2c1nc(N)n1c(=O)n(Cc3ccccc3)nc21 | inhibition in vivo at 10 mg/kg (Rattus norvegicus [2]): 0%; inhibition in vivo at 10 mg/kg (Rattus norvegicus [3]): 8%; AUC [4]: 0.248 µM·h; concentration at 6 h [5]: 10 ng/g; CL (Rattus norvegicus [6]): 24.4 mL/min/kg |
| > 1300 |  | 12 | COCCOc1ccc(N2CCN(CCn3ncc4c3nc(N)n3c(=O)n(Cc5ccccc5)nc43)CC2)c(F)c1 |  |
| 0.5 | 43 |  | Nc1nc2c(c3nn(Cc4ccccc4)c(=O)n13)CCc1ccccc1-2 | inhibition in vivo at 10 mg/kg (Rattus norvegicus [2]): 0%; inhibition in vivo at 10 mg/kg (Rattus norvegicus [3]): 18%; concentration at 6 h [5]: 10 ng/g; CL (Rattus norvegicus [6]): 14.7 mL/min/kg |
|  |  |  | COCCOc1ccc(N2CCN(CCn3ncc4c3nc(N)n3nc(-c5ccco5)nc43)CC2)cc1 [PRELADENANT] | inhibition in vivo at 10 mg/kg (Rattus norvegicus [2]): 75%; inhibition in vivo at 10 mg/kg (Rattus norvegicus [3]): 80%; solubility [1]: < 0.01 µg/mL |
| 8.7 | 162 | 75 | Nc1nc2c(cnn2CCN2CCC3(CC2)OCCO3)c2nn(Cc3ccccc3)c(=O)n12 |  |
| 23.4 | 60 |  | Nc1nc2c(cnn2CCN2CCN(c3ccc(F)cc3F)CC2)c2nn(Cc3cccc(Cl)c3)c(=O)n12 |  |
| 1 | 26 |  | Nc1nc(-c2ccccc2)cc2nn(Cc3ccccc3)c(=O)n12 |  |
| > 1500 |  | > 250 | CN(C)CCn1ncc2c1nc(N)n1c(=O)n(Cc3ccccc3)nc21 |  |
| 11 | 127 |  | Nc1nc2c(cnn2CCN2CCC3(CC2)OCCO3)c2nn(Cc3cccc(Cl)c3)c(=O)n12 |  |
| 28.4 | 53 |  | Nc1nc2c(cnn2CCN2CCC(N3CCOCC3)CC2)c2nn(Cc3ccccc3)c(=O)n12 |  |

| Compound | Ki (Adenosine receptor A2a) [nM] | Ratio Ki (Homo sapiens) | solubility ([1]; read-out: solubility) [µM] | also measured |
| --- | --- | --- | --- | --- |
| CN(C)CCn1ncc2c1nc(N)n1c(=O)n(CC3CC3)nc21 | > 1500 |  | > 250 |  |
